This note sets out measurements from ChEMBL document CHEMBL3865833, “Functional induction of P-glycoprotein efflux pump by phenyl benzenesulfonamides: Synthesis and biological evaluation of T0901317 analogs” (Eur J Med Chem, 2016).

Calls of active or inactive are those of the source. No cut-off for these calls is given here.

Data set [1] in a line: Cytotoxicity against human SH-SY5Y cells assessed as effect on cell viability at 50 uM measured after 24 hrs by MTT assay relative to control. In kind it is toxicity, cell-based. As to conditions: read-out: Activity. For orientation: Formazan colour is commonly taken as a measure of viable cells.
The nature of data set [2]: Cytotoxicity against human LS180 cells assessed as effect on cell viability at 50 uM measured after 24 hrs by MTT assay relative to control. In kind it is toxicity, cell-based. As to conditions: read-out: Activity.
Data set [3] is described as follows: Neuroprotective activity in human SH-SY5Y cells assessed as decrease in amyloid beta-induced cytotoxicity measured as cell viability at 5 uM pretreated for 30 mins prior amyloid beta-challenge measured after 48 hrs by MTT assay (reference value: 68%). Format: functional.
For data set [4], the system named is LS180. In words: Activation of PXR/LXR in human LS180 cells assessed as induction of P-gp measured as intracellular accumulation of Rhodamine-123 at 5 uM preincubated for 48 hrs followed by 40 mins incubation with HANKS buffer and subsequent addition of Rhodamine-123 measured after 90 mins by fluorescence analysis relative to control. In kind it is cell-based.

For data set [5], the system named is LS180. In words: Activation of PXR/LXR in human LS180 cells assessed as induction of P-gp by measuring decrease in intracellular accumulation of Rhodamine-123 at 0.3 uM preincubated for 48 hrs followed by 40 mins incubation with HANKS buffer and subsequent addition of Rhodamine-123 measured after 90 mins by fluorescence assay. Format: cell-based.
The nature of data set [6]: Therapeutic index, ratio of effective concentration for cytotoxicity in human LS180 cells to effective concentration for activation of PXR/LXR in human LS180 cells assessed as induction of P-gp. As to conditions: read-out: TI. Format: cell-based.
Data set [7] in a line: Therapeutic index, ratio of effective concentration for cytotoxicity in human SH-SY5Y cells to effective concentration for activation of PXR/LXR in human LS180 cells assessed as induction of P-gp. Format: cell-based. As to conditions: read-out: TI.
The nature of data set [8]: Cytotoxicity against human LS180 cells assessed as effect on cell viability measured after 24 hrs by MTT assay. Format: toxicity, cell-based.
The nature of data set [9]: Cytotoxicity against human SH-SY5Y cells assessed as effect on cell viability measured after 24 hrs by MTT assay. In kind it is toxicity, cell-based.
Data set [10] has as its system LS180. In words: Activation of PXR/LXR in human LS180 cells assessed as induction of P-gp at 5 uM measured after 24 hrs by Western blot analysis. In kind it is cell-based. A general note: A western blot detects proteins with antibodies after separation by electrophoresis.
The subject of data set [11] is LS180. In words: Activation of PXR/LXR in human LS180 cells assessed as induction of P-gp by measuring intracellular accumulation of Rhodamine-123 at 10 uM preincubated for 48 hrs followed by 40 mins incubation with HANKS buffer and subsequent addition of Rhodamine-123 measured after 90 mins by fluorescence assay relative to control. Format: cell-based.

Turning to `O=S(=O)(c1ccccc1)N(Cc1cn(-c2c(F)cccc2F)nn1)c1ccc(C(O)(C(F)(F)F)C(F)(F)F)cc1`, the viability at 24 h, 50 µM in data set [1] is 125%; in data set [2], 74.5%. The Activity worked out at 75% in data set [3] and 65.1% in the data set on LS180 [4]. Moreover, the outcome with LS180 [5] was Active. For the same compound, the selectivity ratio in [6] and in [7] was 10 each time.
For the compound `O=S(=O)(c1ccccc1)N(CC(F)(F)F)c1ccc(C(O)(C(F)(F)F)C(F)(F)F)cc1` [T091317], the figures for the viability at 24 h, 50 µM in data set [1] and in data set [2] were 94.8% and 73.3%, respectively. Moreover, the IC50 at 24 h in data set [8] and in data set [9] was greater than 50 µM in each case. The Activity in the data set on LS180 [4] was 64.2%. Further, the result in the data set with LS180 [5] and in the data set with LS180 [10] was Active. Also, the selectivity ratio in data set [6] and in [7] was 10 in each case.
Regarding `CO[C@H]1/C=C/O[C@@]2(C)Oc3c(C)c(O)c4c(O)c(c(/C=N/N5CCN(C)CC5)c(O)c4c3C2=O)NC(=O)/C(C)=C\C=C\[C@H](C)[C@H](O)[C@@H](C)[C@@H](O)[C@@H](C)[C@H](OC(C)=O)[C@@H]1C`, the Activity with LS180 [11] was 66.9%.
On to `CC(=O)c1ccc(N(Cc2cn(-c3ccc(C(F)(F)F)cc3)nn2)S(=O)(=O)c2ccccc2)cc1`, for which the viability at 24 h, 50 µM in data set [1] is 108%; in data set [2], 76.7%. Besides, the IC50 at 24 h in [8] and in data set [9] was greater than 50 µM each time. In addition, the Activity in data set [3] stood at 79%; in the data set on LS180 [4], 48.4%. The outcome in the data set on LS180 [5] and in the data set on LS180 [10] was Active. In addition, the selectivity ratio in [6] and in data set [7] was greater than 166 each time.
Turning to `CC(=O)c1ccc(N(Cc2cn(-c3ccccc3)nn2)S(=O)(=O)c2ccccc2)cc1`, the viability at 24 h, 50 µM came to 114% in data set [1] and 86.3% in [2]. In the data set on LS180 [4], the Activity stood at 53.4%. Further, in the data set on LS180 [5], the result was Active. For the same compound, in [7], the selectivity ratio amounted to 10.
`CC(=O)c1ccc(N(Cc2cn(-c3ccccc3C(F)(F)F)nn2)S(=O)(=O)c2ccccc2)cc1`: the figures for the viability at 24 h, 50 µM in data set [1] and in data set [2] were 83.9% and 112%, respectively. For the same compound, the Activity with LS180 [4] is 48.5%. Further, the selectivity ratio in data set [6] and in data set [7] was 10 each time. Besides, the result in the data set on LS180 [10] was Active.
Take `Cc1ccc(C)c(-n2cc(CN(c3ccc(C(O)(C(F)(F)F)C(F)(F)F)cc3)S(=O)(=O)c3ccccc3)nn2)c1`: the results for the viability at 24 h, 50 µM in [1] and in [2] were 93% and 76.9%, respectively. In addition, the Activity in the data set with LS180 [4] turned out to be 69%. Also, the selectivity ratio in data set [6] and in data set [7] was 10 in each case.
On to `C#CCOC(c1ccc(N(CC#C)S(=O)(=O)c2ccccc2)cc1)(C(F)(F)F)C(F)(F)F`, for which the viability at 24 h, 50 µM in data set [1] was 88.7%; in data set [2], 78.7%. For the same compound, the Activity in the data set on LS180 [4] turned out to be 79.7%. Moreover, the selectivity ratio in data set [6] and in [7] was 10 each time.
`C#CCN(c1ccc(C(O)(C(F)(F)F)C(F)(F)F)cc1)S(=O)(=O)c1ccccc1`: the viability at 24 h, 50 µM in data set [1] was 112%; in [2] it was 89.5%. The Activity in the data set with LS180 [4] stood at 60.8%. Also, the selectivity ratio in data set [6] and in data set [7] was 10 each time.
With `O=S(=O)(c1ccccc1)N(Cc1cn(-c2ccc(F)cc2)nn1)c1ccc(C(O)(C(F)(F)F)C(F)(F)F)cc1`, the viability at 24 h, 50 µM was found to be 36.4% in data set [1] and 51.5% in data set [2]. For the same compound, in the data set on LS180 [4], the Activity turned out to be 70.5%. Besides, the selectivity ratio in [6] and in data set [7] was 10 in each case.
Regarding `O=S(=O)(c1ccccc1)N(Cc1cn(-c2ccccc2F)nn1)c1ccc(C(O)(C(F)(F)F)C(F)(F)F)cc1`, the viability at 24 h, 50 µM in [1] turned out to be 129%; in [2], 65.1%. Further, the Activity in the data set with LS180 [4] was 61.8%. Moreover, the result in the data set with LS180 [5] was Active. Moreover, the selectivity ratio in [6] and in [7] was 10 in each case.
Consider `CC(=O)c1ccc(N(Cc2cn(-c3ccc(OC(F)(F)F)cc3)nn2)S(=O)(=O)c2ccccc2)cc1`, for which the viability at 24 h, 50 µM in data set [1] was 64.4%; in data set [2], 67.6%. The Activity with LS180 [4] is 83.4%. For the same compound, the selectivity ratio in data set [6] and in [7] was 10 each time.
`CC(=O)c1ccc(N(Cc2cn(-c3ccccc3C#N)nn2)S(=O)(=O)c2ccccc2)cc1`: the viability at 24 h, 50 µM in [1] amounted to 99%; in [2], 91.8%. The Activity in the data set with LS180 [4] amounted to 86.2%. The selectivity ratio in data set [6] and in data set [7] was 10 each time.
Regarding `O=[N+]([O-])c1ccc(-n2cc(CN(c3ccc(C(O)(C(F)(F)F)C(F)(F)F)cc3)S(=O)(=O)c3ccccc3)nn2)cc1`, the viability at 24 h, 50 µM in data set [1] came to 39.6%; in data set [2], 66.2%. For the same compound, in the data set with LS180 [4], the Activity amounted to 80.6%. Besides, the selectivity ratio in data set [6] and in [7] was 10 throughout.
In the case of `CC(=O)c1ccc(N(Cc2cn(-c3cccc([N+](=O)[O-])c3)nn2)S(=O)(=O)c2ccccc2)cc1`, the viability at 24 h, 50 µM in data set [1] stood at 74.2%; in data set [2], 112%. For the same compound, in the data set with LS180 [4], the Activity was found to be 71.6%. The selectivity ratio in data set [6] and in data set [7] was 10 in each case.
`CC(=O)c1ccc(N(Cc2cn(-c3ccc(C)cc3)nn2)S(=O)(=O)c2ccccc2)cc1`: the viability at 24 h, 50 µM in data set [1] stood at 85.8%; in [2], 84.1%. The Activity in the data set with LS180 [4] was 58.6%. The selectivity ratio in [6] and in [7] was 10 in each case.
